Experimental data reported in the supplement of paper PMC10307832.

Legend:
Test in all cases: relative viability (nuclei count vs DMSO), 5 days (fraction); higher = more cells survive
[1] = compound: CC1=CC(=CC=C1)NC2=NC(=CS2)C3=CC=NC=C3 + Cc1nc(Nc2ncc(C(=O)Nc3c(C)cccc3Cl)s2)cc(N2CCN(CCO)CC2)n1 [Dasatinib] (partner 0.075 µM)
In short: (§1)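 Lung cancer cell lines, seeded in 1536-well plates, were treated the following day by pin tool with a single drug or with five library-drug doses (not always all listed) in √10 steps on top of a fixed anchor-drug dose. Cells were fixed and nuclei stained in one step after 5 days, and nuclei were counted. Relative viability is the nuclei count for treated wells divided by that for vehicle wells, reported as medians of duplicate plates.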

[2] = compound: CC1=CC(=CC=C1)NC2=NC(=CS2)C3=CC=NC=C3 + CC(C)C[C@H](NC(=O)[C@H](Cc1ccccc1)NC(=O)c1cnccn1)B(O)O [Bortezomib] (partner 0.002 µM)
In short: as §1

Masitinib + Trametinib = compound: Cc1ccc(NC(=O)c2ccc(CN3CCN(C)CC3)cc2)cc1Nc1nc(-c2cccnc2)cs1 [Masitinib] + CC(=O)Nc1cccc(-n2c(=O)n(C3CC3)c(=O)c3c(Nc4ccc(I)cc4F)n(C)c(=O)c(C)c32)c1 [Trametinib] (partner 0.02 µM)
In short: as §1

Masitinib + Foretinib = compound: Cc1ccc(NC(=O)c2ccc(CN3CCN(C)CC3)cc2)cc1Nc1nc(-c2cccnc2)cs1 [Masitinib] + COc1cc2c(Oc3ccc(NC(=O)C4(C(=O)Nc5ccc(F)cc5)CC4)cc3F)ccnc2cc1OCCCN1CCOCC1 [Foretinib] (partner 0.25 µM)
In short: as §1

Cell Line	relative viability ([1]; first compound 0.08 µM)	relative viability ([1]; first compound 0.253 µM)	relative viability ([1]; first compound 0.8 µM)	relative viability ([1]; first compound 2.53 µM)	relative viability ([1]; first compound 8 µM)	relative viability ([2]; first compound 0.08 µM)	relative viability ([2]; first compound 0.253 µM)	relative viability ([2]; first compound 0.8 µM)	relative viability ([2]; first compound 2.53 µM)	relative viability ([2]; first compound 8 µM)	relative viability (Masitinib + Trametinib; first compound 0.01 µM)	relative viability (Masitinib + Trametinib; first compound 0.03162 µM)	relative viability (Masitinib + Trametinib; first compound 0.1 µM)	relative viability (Masitinib + Trametinib; first compound 0.3162 µM)	relative viability (Masitinib + Trametinib; first compound 1 µM)	relative viability (Masitinib + Foretinib; first compound 0.01 µM)	relative viability (Masitinib + Foretinib; first compound 0.03162 µM)	relative viability (Masitinib + Foretinib; first compound 0.1 µM)	relative viability (Masitinib + Foretinib; first compound 0.3162 µM)	relative viability (Masitinib + Foretinib; first compound 1 µM)
HOP-62	0.52	0.605	0.527	0.594	0.449	0.673	0.784	1.16	0.588	0.496	0.394	0.361	0.349	0.365	0.375	1.02	1.04	1.22	1.17	1.14
HARA	0.194	0.269	0.399	0.281	0.278	1.09	1.16	1.1	1.03	0.936	0.767	0.627	0.946		0.897		0.795	0.913	0.437	0.819
PC-14	0.237	0.247	0.27	0.225	0.178	0.966	0.899	0.685	0.909	0.499	0.774	0.634	0.909	0.729	0.821	0.809	0.831	0.857	0.957	0.949
NCI-H1792	0.689		0.832	0.54	0.63	0.954	0.75	0.784	0.81	0.898	0.427	0.307	0.37	0.503	0.498					
HCC-78		0.376	0.398	0.379	0.523	0.409	0.473	0.469	0.414	0.274	0.509	0.787	0.746	0.745	0.65	0.554	0.551	0.548	0.521	0.451
IA-LM						0.803		0.705	0.511	0.494						1.24	1.09	1.13	1.12	1.36
NCI-H1944	0.202	0.208	0.328	0.243	0.282							0.457		0.349	0.368		0.832		0.793	0.85
NCI-H1299						0.973	0.983	0.91	1.04	0.885						1.04	1.06	1.09	1.09	1.07
NCI-H1703						0.241	0.317	0.334	0.336	0.331						0.315	0.308	0.287	0.342	0.328
NCI-H522	0.851	0.792	0.933	0.809	0.983						0.742	0.784	0.787	0.73	0.721					
NCI-H1648											0.523	0.436	0.414		0.442					
NCI-H1793	0.343	0.365	0.454	0.459	0.356						0.54	0.388	0.407	0.555	0.346	0.63	0.684	0.973	0.519	0.61
NCI-H1563	0.48	0.41	0.498	0.404	0.434	0.794	0.842	0.808	0.836	0.59						0.989	0.932	0.87	0.877	0.895
NCI-H2342	0.306	0.303	0.302	0.278	0.311						0.89	0.7	0.844	0.797	0.875	1.09	0.875	1.08	1.13	1.01
SW 900	0.358	0.477	0.527	0.615	0.383						0.719	0.736	0.787	0.821	0.843	0.757	0.846	1.04	0.798	1.03
LK-2		0.241	0.421		0.327						0.743	0.783	0.828	0.728	0.748	1.19	1.3	1.4	1.13	1.22
NCI-H1395	0.364	0.372	0.402	0.397	0.404						1.01	1.03	1.04	1.11	0.973	0.969	1	1.06	0.754	0.915
A549																0.881	0.826	1	0.898	1.23
NCI-H358	0.214	0.173	0.182	0.185	0.263						0.148	0.13	0.135	0.121	0.122	0.769	0.81	0.784	0.625	0.591
ABC-1	0.659	0.473	0.552	0.445	0.404	0.316	0.265	0.328	0.315	0.32						0.93	1.07	1.21	1.05	1
